According to patent publication US9708318B2, “Bicyclic heterocycles as FGFR4 inhibitors” (Incyte Corporation, priority 2015, dated 2017):
Where two headings read alike, the source gives them in different places.

Assays:
FGFR1 = FGFR1 (Homo sapiens (Human), UniProt P11362); assay: FGFR Enzymatic Assay (FRET peptide phosphorylation), FGFR1
FGFR2 = FGFR2 (Homo sapiens (Human), UniProt P21802); assay: FGFR Enzymatic Assay (FRET peptide phosphorylation), FGFR2; format: biochemical
Procedure: (§1) The inhibitor potency of the exemplified compounds was measured in an enzyme assay that measures peptide phosphorylation using FRET measurements to detect product formation. Inhibitors were serially diluted in DMSO and a volume of 0.5 μL was transferred to the wells of a 384-well plate.
(§2) The enzymes were purchased from Millipore or Invitrogen.
(§3) GraphPad prism3 was used to analyze the data.

FGFR4 = FGFR4 (Homo sapiens (Human), UniProt P22455); assay: FGFR Enzymatic Assay (FRET peptide phosphorylation), FGFR4; format: biochemical; conditions: for FGFR1/FGFR4 IC50 ratio / FGFR2/FGFR4 IC50 ratio / FGFR3/FGFR4 IC50 ratio: FGFR4 selectivity
FGFR4, sequence (P22455 22-802): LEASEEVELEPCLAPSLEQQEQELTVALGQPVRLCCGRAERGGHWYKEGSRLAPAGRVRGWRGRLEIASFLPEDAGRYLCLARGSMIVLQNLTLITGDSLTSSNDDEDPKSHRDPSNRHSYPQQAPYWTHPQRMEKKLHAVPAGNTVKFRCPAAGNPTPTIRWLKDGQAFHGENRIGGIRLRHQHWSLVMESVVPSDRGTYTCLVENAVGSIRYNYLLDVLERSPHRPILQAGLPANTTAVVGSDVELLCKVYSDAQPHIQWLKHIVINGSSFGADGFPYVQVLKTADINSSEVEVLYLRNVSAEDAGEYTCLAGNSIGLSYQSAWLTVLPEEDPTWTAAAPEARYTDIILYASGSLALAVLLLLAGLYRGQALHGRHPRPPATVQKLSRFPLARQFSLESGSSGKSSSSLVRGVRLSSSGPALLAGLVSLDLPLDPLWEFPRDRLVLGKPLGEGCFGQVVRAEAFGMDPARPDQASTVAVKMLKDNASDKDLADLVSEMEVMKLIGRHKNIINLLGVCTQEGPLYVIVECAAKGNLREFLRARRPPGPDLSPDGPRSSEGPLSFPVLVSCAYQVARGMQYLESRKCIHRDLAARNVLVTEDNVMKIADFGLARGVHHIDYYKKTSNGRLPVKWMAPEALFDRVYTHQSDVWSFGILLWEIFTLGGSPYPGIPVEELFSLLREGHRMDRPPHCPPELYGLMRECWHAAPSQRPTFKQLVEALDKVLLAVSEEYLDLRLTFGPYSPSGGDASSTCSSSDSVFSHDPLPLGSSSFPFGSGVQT
Procedure: as §1, §2, §3

FGFR3 enzyme = FGFR3 enzyme (Homo sapiens (Human), UniProt P22607); assay: FGFR Enzymatic Assay (FRET peptide phosphorylation), FGFR3; format: biochemical; conditions: for FGFR1/FGFR3 IC50 ratio / FGFR4/FGFR3 IC50 ratio: FGFR3 selectivity; for IC50: read-out: FGFR3 IC50
FGFR3 enzyme, sequence (P22607 23-806): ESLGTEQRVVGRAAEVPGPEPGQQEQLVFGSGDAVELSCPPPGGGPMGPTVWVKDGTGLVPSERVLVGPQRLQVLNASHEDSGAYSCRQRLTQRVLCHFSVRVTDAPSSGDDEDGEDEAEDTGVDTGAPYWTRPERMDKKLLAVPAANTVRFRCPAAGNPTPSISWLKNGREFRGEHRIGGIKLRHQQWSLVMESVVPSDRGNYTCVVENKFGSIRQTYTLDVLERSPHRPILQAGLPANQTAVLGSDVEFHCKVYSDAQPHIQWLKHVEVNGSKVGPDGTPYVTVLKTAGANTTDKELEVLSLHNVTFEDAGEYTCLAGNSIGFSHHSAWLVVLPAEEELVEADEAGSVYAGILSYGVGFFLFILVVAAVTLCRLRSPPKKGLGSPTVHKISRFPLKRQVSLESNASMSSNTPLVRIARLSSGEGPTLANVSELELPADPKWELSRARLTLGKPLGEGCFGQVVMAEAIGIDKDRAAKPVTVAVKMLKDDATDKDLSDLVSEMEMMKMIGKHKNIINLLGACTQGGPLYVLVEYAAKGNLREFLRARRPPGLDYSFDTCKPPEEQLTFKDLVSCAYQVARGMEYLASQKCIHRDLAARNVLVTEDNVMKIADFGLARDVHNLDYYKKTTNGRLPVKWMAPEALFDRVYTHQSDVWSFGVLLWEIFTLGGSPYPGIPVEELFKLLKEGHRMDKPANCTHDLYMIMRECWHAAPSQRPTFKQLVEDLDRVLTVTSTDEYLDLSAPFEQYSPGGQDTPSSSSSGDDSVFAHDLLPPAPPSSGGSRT
Procedure: as §1, §3

[1] = FGFR1 IC50 (nM), pre-incubated for 4 hours
[2] = read-out: FGFR1 IC50, pre-incubated for 5 to 10 minutes
[3] = read-out: FGFR1 IC50, pre-incubated for 4 hours
[4] = pre-incubated for 5 to 10 minutes

FGFR2, sequence (P21802 22-821): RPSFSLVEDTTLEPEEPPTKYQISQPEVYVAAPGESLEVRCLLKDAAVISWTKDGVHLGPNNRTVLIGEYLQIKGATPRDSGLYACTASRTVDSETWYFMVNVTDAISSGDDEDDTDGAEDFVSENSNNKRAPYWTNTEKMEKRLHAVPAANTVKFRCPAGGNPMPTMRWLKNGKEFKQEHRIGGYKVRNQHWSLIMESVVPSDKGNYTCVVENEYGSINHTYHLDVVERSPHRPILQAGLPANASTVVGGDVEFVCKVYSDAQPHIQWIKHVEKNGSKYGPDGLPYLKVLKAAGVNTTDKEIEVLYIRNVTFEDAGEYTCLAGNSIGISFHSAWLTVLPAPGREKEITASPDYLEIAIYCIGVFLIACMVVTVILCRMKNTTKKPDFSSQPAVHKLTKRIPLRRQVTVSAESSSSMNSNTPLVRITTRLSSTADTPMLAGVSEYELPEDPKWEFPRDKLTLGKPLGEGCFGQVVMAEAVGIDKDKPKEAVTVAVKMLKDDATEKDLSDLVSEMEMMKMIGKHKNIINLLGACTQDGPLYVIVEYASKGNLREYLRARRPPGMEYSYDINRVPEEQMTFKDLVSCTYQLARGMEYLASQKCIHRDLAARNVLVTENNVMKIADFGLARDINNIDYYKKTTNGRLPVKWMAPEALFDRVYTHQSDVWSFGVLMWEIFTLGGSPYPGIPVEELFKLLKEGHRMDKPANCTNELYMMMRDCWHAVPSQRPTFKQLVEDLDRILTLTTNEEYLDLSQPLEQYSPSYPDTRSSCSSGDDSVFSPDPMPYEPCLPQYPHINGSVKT
FGFR1, sequence (P11362 22-822): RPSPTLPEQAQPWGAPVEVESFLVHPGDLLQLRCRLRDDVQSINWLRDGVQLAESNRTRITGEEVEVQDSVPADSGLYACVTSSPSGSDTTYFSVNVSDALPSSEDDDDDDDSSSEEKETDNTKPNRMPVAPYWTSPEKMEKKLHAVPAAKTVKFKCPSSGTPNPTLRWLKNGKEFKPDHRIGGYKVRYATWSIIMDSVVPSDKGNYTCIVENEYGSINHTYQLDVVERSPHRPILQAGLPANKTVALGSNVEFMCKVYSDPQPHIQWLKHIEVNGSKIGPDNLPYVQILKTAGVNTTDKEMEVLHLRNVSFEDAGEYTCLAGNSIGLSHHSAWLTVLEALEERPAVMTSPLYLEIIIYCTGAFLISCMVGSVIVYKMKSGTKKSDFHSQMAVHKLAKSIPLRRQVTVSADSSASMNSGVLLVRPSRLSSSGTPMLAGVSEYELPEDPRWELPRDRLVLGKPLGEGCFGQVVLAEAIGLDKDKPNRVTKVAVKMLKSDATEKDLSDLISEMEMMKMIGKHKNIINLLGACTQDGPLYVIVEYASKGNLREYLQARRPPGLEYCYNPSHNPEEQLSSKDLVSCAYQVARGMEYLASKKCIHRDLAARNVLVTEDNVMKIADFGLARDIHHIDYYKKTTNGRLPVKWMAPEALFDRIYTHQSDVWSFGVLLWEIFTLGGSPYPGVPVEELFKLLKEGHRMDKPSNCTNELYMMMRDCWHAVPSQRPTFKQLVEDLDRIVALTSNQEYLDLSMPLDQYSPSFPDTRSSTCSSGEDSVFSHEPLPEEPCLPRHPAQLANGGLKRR

SMILES	IC50 (FGFR1; [1]) [nM]	IC50 (FGFR2; pre-incubated for 4 hours) [nM]	IC50 (FGFR4; pre-incubated for 4 hours) [nM]	FGFR1/FGFR3 IC50 ratio (FGFR3 enzyme; pre-incubated for 4 hours)	FGFR4/FGFR3 IC50 ratio (FGFR3 enzyme; pre-incubated for 4 hours)	IC50 (FGFR3 enzyme; pre-incubated for 4 hours) [nM]	IC50 (FGFR1; [2]) [nM]	IC50 (FGFR1; [3]) [nM]	IC50 (FGFR2; [4]) [nM]	FGFR1/FGFR4 IC50 ratio (FGFR4; [4])	FGFR2/FGFR4 IC50 ratio (FGFR4; [4])	FGFR3/FGFR4 IC50 ratio (FGFR4; [4])	FGFR1/FGFR4 IC50 ratio (FGFR4; pre-incubated for 4 hours)	FGFR2/FGFR4 IC50 ratio (FGFR4; pre-incubated for 4 hours)	FGFR3/FGFR4 IC50 ratio (FGFR4; pre-incubated for 4 hours)	IC50 (FGFR4; [4]) [nM]	IC50 (FGFR3 enzyme; [4]) [nM]	IC50 (FGFR1; FGFR1 IC50 (nM), pre-incubated for 5 to 10 minutes) [nM]
COc1cc(OC)c(F)c(N2Cc3cnc(-c4cn(C)nc4C)cc3N(c3cn[nH]c3)C2=O)c1F [Example 129, 3-(2,6-difluoro-3,5-dimethoxyphenyl)-7-(1,3-dimethyl-1H-pyrazol-4-yl)-1-(1H-pyrazol-4-yl)-3,4-dihydropyrido[4,3-d]pyrimidin-2(1H)-one]	10 to 30	< 10	30 to 200	>5	>10	< 10												
COc1cc(OC)c(F)c(N2Cc3cnc(-c4cncc(N5CCOCC5)c4)cc3C3(CC3)C2=O)c1F [Example 6, 2′-(2,6-difluoro-3,5-dimethoxyphenyl)-6′-(5-morpholinopyridin-3-yl)-1′H-spiro[cyclopropane-1,4′-[2,7]naphthyridin]-3′(2′H)-one]		> 200	< 10	>3		30 to 200	> 200	> 200	> 200	>100	>100	>50	>100	>100	>25	< 10	30 to 200	
COc1cccc(N2C(=O)N(c3c(F)c(OC)cc(OC)c3F)Cc3cnc(-c4cn(C)nc4C)cc32)c1 [Example 109, 3-(2,6-difluoro-3,5-dimethoxyphenyl)-7-(1,3-dimethyl-1H-pyrazol-4-yl)-1-(3-methoxyphenyl)-3,4-dihydropyrido[4,3-d]pyrimidin-2(1H)-one]	10 to 30	< 10	30 to 200	>3	>10	< 10												
COc1cc(OC)c(F)c(N2Cc3cnc(-c4cn(C)nc4C)cc3N(c3ccc(F)cc3)C2=O)c1F [Example 40, 3-(2,6-difluoro-3,5-dimethoxyphenyl)-7-(1,3-dimethyl-1H-pyrazol-4-yl)-1-(4-fluorophenyl)-3,4-dihydropyrido[4,3-d]pyrimidin-2(1H)-one]	30 to 200	< 10	30 to 200	>10	>10	< 10												
COc1cc(OC)c(F)c(N2Cc3cnc(-c4cn(C)nc4C)cc3N(c3cc(F)cc(F)c3)C2=O)c1F [Example 103, 3-(2,6-difluoro-3,5-dimethoxyphenyl)-1-(3,5-difluorophenyl)-7-(1,3-dimethyl-1H-pyrazol-4-yl)-3,4-dihydropyrido[4,3-d]pyrimidin-2(1H)-one]	30 to 200	10 to 30	30 to 200	>3	>5	10 to 30												
COc1cc(OC)c(F)c(N2Cc3cnc(-c4cn(C)nc4C)cc3N(Cc3cncnc3)C2=O)c1F [Example 84, 3-(2,6-difluoro-3,5-dimethoxyphenyl)-7-(1,3-dimethyl-1H-pyrazol-4-yl)-1-(pyrimidin-5-ylmethyl)-3,4-dihydropyrido[4,3-d]pyrimidin-2(1H)-one]	30 to 200	< 10	30 to 200	>5	>5	< 10												
COc1cc(OC)c(F)c(N2Cc3cnc(-c4cncc(S(=O)(=O)N5CCOCC5)c4)cc3C3(CC3)C2=O)c1F [Example 14, 2′-(2,6-difluoro-3,5-dimethoxyphenyl)-6′-(5-(morpholinosulfonyl)pyridin-3-yl)-1′H-spiro[cyclopropane-1,4′-[2,7]naphthyridin]-3′(2′H)-one]		30 to 200	< 10	>5		30 to 200	> 200	> 200	30 to 200	>25	>5	>5	>50	>10	>1	< 10	10 to 30	
COc1cc(OC)c(F)c(N2Cc3cnc(-c4cn(C)nc4C)cc3N(C3CC3)C2=O)c1F [Example 83, 1-cyclopropyl-3-(2,6-difluoro-3,5-dimethoxyphenyl)-7-(1,3-dimethyl-1H-pyrazol-4-yl)-3,4-dihydropyrido[4,3-d]pyrimidin-2(1H)-one]	30 to 200	30 to 200	> 200	>5	>5	10 to 30												
COc1cc(OC)c(F)c(N2Cc3cnc(-c4cnn(CC5CN(C(C)=O)C5)c4)cc3C3(CC3)C2=O)c1F [Example 167, 6′-(1-((1-acetylazetidin-3-yl)methyl)-1H-pyrazol-4-yl)-2′-(2,6-difluoro-3,5-dimethoxyphenyl)-1′H-spiro[cyclopropane-1,4′-[2,7]naphthyridin]-3′(2′H)-one]		< 10	10 to 30	>3	>3	< 10		< 10										
COc1cc(OC)c(F)c(N2Cc3cnc(-c4cnn(CCN5CCC(OC)C5)c4)cc3C3(CC3)C2=O)c1F (stereo not shown) [Example 161, 2′-(2,6-difluoro-3,5-dimethoxyphenyl)-6′-(1-(2-(3-methoxypyrrolidin-1-yl)ethyl)-1H-pyrazol-4-yl)-1′H-spiro[cyclopropane-1,4′-[2,7]naphthyridin]-3′(2′H)-one]	10 to 30	< 10	10 to 30	>5	>3	< 10												
COc1cc(OC)c(F)c(N2Cc3cnc(-c4cn(CCC#N)nc4C)cc3C3(CC3)C2=O)c1F [Example 156, 3-(4-(2′-(2,6-difluoro-3,5-dimethoxyphenyl)-3′-oxo-2′,3′-dihydro-1′H-spiro[cyclopropane-1,4,-[2,7]naphthyridine]-6′-yl)-3-methyl-1H-pyrazol-1-yl)propanenitrile]	30 to 200	10 to 30	10 to 30	>5	>1	< 10												
COc1cc(OC)c(F)c(N2Cc3cnc(-c4cn(C)nc4C)cc3N(c3cncc(C)n3)C2=O)c1F [Example 87, 3-(2,6-difluoro-3,5-dimethoxyphenyl)-7-(1,3-dimethyl-1H-pyrazol-4-yl)-1-(6-methylpyrazin-2-yl)-3,4-dihydropyrido[4,3-d]pyrimidin-2(1H)-one]	30 to 200	< 10	30 to 200	>5	>10	< 10												
COc1cc(OC)c(F)c(N2Cc3cnc(-c4cn(C)nc4C)cc3N(c3cnccn3)C2=O)c1F [Example 70, 3-(2,6-difluoro-3,5-dimethoxyphenyl)-7-(1,3-dimethyl-1H-pyrazol-4-yl)-1-(pyrazin-2-yl)-3,4-dihydropyrido[4,3-d]pyrimidin-2(1H)-one]	30 to 200	10 to 30	30 to 200	>5	>5	10 to 30												
COc1cc(OC)c(F)c(N2Cc3cnc(-c4cn(C)nc4C)cc3N(CC3CC3)C2=O)c1F [Example 29, 1-(cyclopropylmethyl)-3-(2,6-difluoro-3,5-dimethoxyphenyl)-7-(1,3-dimethyl-1H-pyrazol-4-yl)-3,4-dihydropyrido[4,3-d]pyrimidin-2(1H)-one]	10 to 30	< 10	10 to 30	>1	>5	< 10												
COc1cc(OC)c(F)c(N2Cc3cnc(-c4cn(C)nc4C)cc3N(Cc3cnn(CC4CC4)c3)C2=O)c1F [Example 126, 1-((1-(cyclopropylmethyl)-1H-pyrazol-4-yl)methyl)-3-(2,6-difluoro-3,5-dimethoxyphenyl)-7-(1,3-dimethyl-1H-pyrazol-4-yl)-3,4-dihydropyrido[4,3-d]pyrimidin-2(1H)-one]									< 10							30 to 200	< 10	10 to 30
